Experimental findings from publication PMC6842527, “Molecular cloning and metabolomic characterization of the 5-enolpyruvylshikimate-3-phosphate synthase gene from Baphicacanthus cusia” (BMC Plant Biology, 2019) are described below.

The term pKi denotes the Ki on a negative log10 scale, so that one unit is a factor of ten.

pKi: −log10 of the molar value.

The target of this test is T1, BcEPSPS (5-enolpyruvylshikimate-3-phosphate synthase).
T1 construct: gene EPSPS; full-length coding region (518 aa) in pET-32a, His-tagged fusion BcEPSPS-His, expressed in E. coli BL21
Briefly: malachite green phosphate-release enzyme assay with purified recombinant BcEPSPS; Ki at […] S3P (IC50 […] also reported). The test is classed as biochemical, Baphicacanthus cusia.

`O=C(O)CNCP(=O)(O)O` [glyphosate]: the pKi was 7.34.
